# Columns and labels:
# Type in all cases: in vivo
# [1] = tested on: Monochoria vaginalis; test: Test Example 2: herbicidal activity, application during weed generation in submerged conditions (symbol C); details: Table 23; application herbicide amount 320 g/ha; grade 0-5 by criteria of Test Example 1
# Method in brief: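 Scoring of herbicidal effect took place 3 weeks after treatment, using the criteria of the earlier test. Treatment was water-surface application of diluted emulsifiable compound at a set dose. Plants were at one- to two-leaf stage in submerged alluvial soil (4 cm depth), greenhouse 25-30° C.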
# [2] = tested on: directly sowed rice plant; test: Test Example 3: effect on crop by foliage application, Wagner pot (symbol b); details: application herbicide amount 320 g/ha
# Method in brief: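 Steps: fill a 1/10000-are Wagner pot with alluvial soil; add water and mix to submerge at 0.1–0.5 cm depth; sow rice plus Echinochloa crus-galli var. crus-galli, Leptochloa chinensis and Cyperus difformis; grow in a 25–30 °C greenhouse.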
# [3] = tested on: Digitaria ciliaris; test: Test Example 4: herbicidal effect by soil treatment (symbol F); details: application herbicide amount 320 g/ha
# Method in brief: (§1)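 Seeds were sown in sterilized diluvial soil, covered with about 1.5 cm of soil, and the soil surface was sprayed with a water-diluted emulsion of the compound at a predetermined rate. Plants grew in a greenhouse at 25° C. to 30° C.; effects were scored visually 3 weeks after application.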
# [4] = tested on: Echinochloa crus-galli var. crus-galli; test: Test Example 4: herbicidal effect by soil treatment (symbol H); details: application herbicide amount 320 g/ha
# Method in brief: as §1
# [5] = tested on: Avena fatua; test: Test Example 4: herbicidal effect by soil treatment (symbol I); details: application herbicide amount 320 g/ha
# Method in brief: as §1
# [6] = tested on: Alopecurus myosuroides; test: Test Example 4: herbicidal effect by soil treatment (symbol J); details: application herbicide amount 320 g/ha
# Method in brief: as §1
# [7] = tested on: Lolium multiflorum Lam.; test: Test Example 4: herbicidal effect by soil treatment (symbol K); details: application herbicide amount 320 g/ha
# Method in brief: as §1
# [8] = tested on: Apera spica-venti; test: Test Example 4: herbicidal effect by soil treatment (symbol L); details: application herbicide amount 320 g/ha
# Method in brief: as §1
# [9] = tested on: rice; test: Test Example 4: effect on crop by soil treatment (symbol b); details: application herbicide amount 320 g/ha
# Method in brief: (§2)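 Sterilized diluvial soil, spot sowing, ~1.5 cm soil cover; greenhouse 25–30° C.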
# [10] = tested on: beet; test: Test Example 4: effect on crop by soil treatment (symbol f); details: application herbicide amount 320 g/ha
# Method in brief: as §2
# [11] = tested on: rapeseed; test: Test Example 4: effect on crop by soil treatment (symbol g); details: application herbicide amount 320 g/ha
# Method in brief: as §2
# [12] = tested on: Digitaria ciliaris; test: Test Example 5: herbicidal effect by foliage application, plastic box (symbol F); details: 320 g/ha, 3 weeks after application
# Method in brief: (§3)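 Emulsion formulation, diluted with water to the intended rate, was applied uniformly to leaves by small sprayer. Recipients were 14-day greenhouse-grown seedlings (25° C. to 30° C.). Assessment followed at 3 weeks.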
# [13] = tested on: Avena fatua; test: Test Example 5: herbicidal effect by foliage application, plastic box (symbol I); details: 320 g/ha, 3 weeks after application
# Method in brief: as §3
# [14] = tested on: Lolium multiflorum Lam.; test: Test Example 5: herbicidal effect by foliage application, plastic box (symbol K); details: 320 g/ha, 3 weeks after application
# Method in brief: as §3
# [15] = tested on: Apera spica-venti; test: Test Example 5: herbicidal effect by foliage application, plastic box (symbol L); details: 320 g/ha, 3 weeks after application
# Method in brief: as §3
# [16] = tested on: Abutilon theophrasti; test: Test Example 5: herbicidal effect by foliage application, plastic box (symbol M); details: 320 g/ha, 3 weeks after application
# Method in brief: as §3
# [17] = tested on: Amaranthus retroflexus; test: Test Example 5: herbicidal effect by foliage application, plastic box (symbol N); details: 320 g/ha, 3 weeks after application
# Method in brief: as §3
# [18] = tested on: Stellaria media; test: Test Example 5: herbicidal effect by foliage application, plastic box (symbol P); details: 320 g/ha, 3 weeks after application
# Method in brief: as §3
# [19] = tested on: Galium spurium; test: Test Example 5: herbicidal effect by foliage application, plastic box (symbol Q); details: 320 g/ha, 3 weeks after application
# Method in brief: as §3
# [20] = tested on: Veronica persica; test: Test Example 5: herbicidal effect by foliage application, plastic box (symbol R); details: 320 g/ha, 3 weeks after application
# Method in brief: as §3
# [21] = tested on: wheat; test: Test Example 5: effect on crop by foliage application, plastic box (symbol e); details: 320 g/ha, 3 weeks after application
# Method in brief: (§4)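 Greenhouse test at 25° C. to 30° C. Seeds of crops and weeds were spot-sown in boxes of sterilized diluvial soil under roughly 1.5 cm soil cover, then grown for foliage treatment.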
# [22] = tested on: rapeseed; test: Test Example 5: effect on crop by foliage application, plastic box (symbol g); details: 320 g/ha, 3 weeks after application
# Method in brief: as §4
Structure (SMILES),"Herbicidal effect grade, C: Monochoria vaginalis [1]","effect on crop b (directly sowed rice plant), grade 0-5 [2]",F (Digitaria ciliaris) herbicidal effect grade [3],H (Echinochloa crus-galli var. crus-galli) herbicidal effect grade [4],I (Avena fatua) herbicidal effect grade [5],J (Alopecurus myosuroides) herbicidal effect grade [6],K (Lolium multiflorum Lam.) herbicidal effect grade [7],L (Apera spica-venti) herbicidal effect grade [8],b (directly sowed rice plant) effect on crop grade [9],f (beet) effect on crop grade [10],g (rapeseed) effect on crop grade [11],"F: Digitaria ciliaris, herbicidal effect grade [12]","I: Avena fatua, herbicidal effect grade [13]","K: Lolium multiflorum Lam., herbicidal effect grade [14]","L: Apera spica-venti, herbicidal effect grade [15]","M: Abutilon theophrasti, herbicidal effect grade [16]","Q: Galium spurium, herbicidal effect grade [19]","R: Veronica persica, herbicidal effect grade [20]","e: wheat, effect on crop grade [21]","g: rapeseed, effect on crop grade [22]",further results
CON=C(C)CC1CC(OC(=O)SC(C)(C)C)=C(c2c(C)cc(-c3ccc(Cl)cc3)cc2C)C1=O (stereo not drawn) [6-082],5 (Herbicidal ratio of 90% or more (almost completely withered)),5 (Herbicidal ratio of 90% or more (almost completely withered)),,,,,,,,,,,,,,,,,,,"F: Digitaria ciliaris, herbicidal effect grade [3]: 5 (Herbicidal ratio of 90% or more (almost completely withered)); H: Echinochloa crus-galli var. crus-galli, herbicidal effect grade [4]: 5 (Herbicidal ratio of 90% or more (almost completely withered)); I: Avena fatua, herbicidal effect grade [5]: 3 (Herbicidal ratio of 40% or higher and lower than 70%); J: Alopecurus myosuroides, herbicidal effect grade [6]: 5 (Herbicidal ratio of 90% or more (almost completely withered)); K: Lolium multiflorum Lam., herbicidal effect grade [7]: 5 (Herbicidal ratio of 90% or more (almost completely withered)); L: Apera spica-venti, herbicidal effect grade [8]: 5 (Herbicidal ratio of 90% or more (almost completely withered)); b: directly sowed rice plant, effect on crop grade [9]: 1 (Herbicidal ratio of 5% or higher and lower than 20%); f: beet, effect on crop grade [10]: 0 (Herbicidal ratio of 5% or lower (almost no effect)); g: rapeseed, effect on crop grade [11]: 0 (Herbicidal ratio of 5% or lower (almost no effect)); F: Digitaria ciliaris, herbicidal effect (criteria of Test Example 1) [12]: 5 (Herbicidal ratio of 90% or more (almost completely withered)); I: Avena fatua, herbicidal effect (criteria of Test Example 1) [13]: 5 (Herbicidal ratio of 90% or more (almost completely withered)); K: Lolium multiflorum Lam., herbicidal effect (criteria of Test Example 1) [14]: 5 (Herbicidal ratio of 90% or more (almost completely withered)); L: Apera spica-venti, herbicidal effect (criteria of Test Example 1) [15]: 5 (Herbicidal ratio of 90% or more (almost completely withered)); M: Abutilon theophrasti, herbicidal effect (criteria of Test Example 1) [16]: 4 (Herbicidal ratio of 70% or higher and lower than 90%); N: Amaranthus retroflexus, herbicidal effect (criteria of Test Example 1) [17]: 1 (Herbicidal ratio of 5% or higher and lower than 20%); P: Stellaria media, herbicidal effect (criteria of Test Example 1) [18]: 1 (Herbicidal ratio of 5% or higher and lower than 20%); Q: Galium spurium, herbicidal effect (criteria of Test Example 1) [19]: 4 (Herbicidal ratio of 70% or higher and lower than 90%); R: Veronica persica, herbicidal effect (criteria of Test Example 1) [20]: 4 (Herbicidal ratio of 70% or higher and lower than 90%); e: wheat, effect on crop (criteria of Test Example 1) [21]: 5 (Herbicidal ratio of 90% or more (almost completely withered)); g: rapeseed, effect on crop (criteria of Test Example 1) [22]: 4 (Herbicidal ratio of 70% or higher and lower than 90%)"
CON=C(C)C(C(C)=NOC)C1CC(O)=C(c2c(C)cc(C)cc2C)C1=O (stereo not drawn) [1-021],0 (Herbicidal ratio of 5% or lower (almost no effect)),0 (Herbicidal ratio of 5% or lower (almost no effect)),0 (Herbicidal ratio of 5% or lower (almost no effect)),0 (Herbicidal ratio of 5% or lower (almost no effect)),0 (Herbicidal ratio of 5% or lower (almost no effect)),0 (Herbicidal ratio of 5% or lower (almost no effect)),2 (Herbicidal ratio of 20% or higher and lower than 40%),0 (Herbicidal ratio of 5% or lower (almost no effect)),2 (Herbicidal ratio of 20% or higher and lower than 40%),0 (Herbicidal ratio of 5% or lower (almost no effect)),0 (Herbicidal ratio of 5% or lower (almost no effect)),1 (Herbicidal ratio of 5% or higher and lower than 20%),0 (Herbicidal ratio of 5% or lower (almost no effect)),4 (Herbicidal ratio of 70% or higher and lower than 90%),4 (Herbicidal ratio of 70% or higher and lower than 90%),0 (Herbicidal ratio of 5% or lower (almost no effect)),0 (Herbicidal ratio of 5% or lower (almost no effect)),0 (Herbicidal ratio of 5% or lower (almost no effect)),0 (Herbicidal ratio of 5% or lower (almost no effect)),2 (Herbicidal ratio of 20% or higher and lower than 40%),"N: Amaranthus retroflexus, herbicidal effect grade [17]: 0 (Herbicidal ratio of 5% or lower (almost no effect))"
CC(CC1CC(O)=C(c2c(C)cc(C)cc2C)C1=O)=NOCc1ccccc1 (stereo not drawn) [1-020],2 (Herbicidal ratio of 20% or higher and lower than 40%),5 (Herbicidal ratio of 90% or more (almost completely withered)),5 (Herbicidal ratio of 90% or more (almost completely withered)),5 (Herbicidal ratio of 90% or more (almost completely withered)),4 (Herbicidal ratio of 70% or higher and lower than 90%),5 (Herbicidal ratio of 90% or more (almost completely withered)),5 (Herbicidal ratio of 90% or more (almost completely withered)),5 (Herbicidal ratio of 90% or more (almost completely withered)),5 (Herbicidal ratio of 90% or more (almost completely withered)),0 (Herbicidal ratio of 5% or lower (almost no effect)),4 (Herbicidal ratio of 70% or higher and lower than 90%),5 (Herbicidal ratio of 90% or more (almost completely withered)),4 (Herbicidal ratio of 70% or higher and lower than 90%),5 (Herbicidal ratio of 90% or more (almost completely withered)),5 (Herbicidal ratio of 90% or more (almost completely withered)),3 (Herbicidal ratio of 40% or higher and lower than 70%),4 (Herbicidal ratio of 70% or higher and lower than 90%),4 (Herbicidal ratio of 70% or higher and lower than 90%),5 (Herbicidal ratio of 90% or more (almost completely withered)),4 (Herbicidal ratio of 70% or higher and lower than 90%),
